Results on 24 compounds are retold here after paper PMC6155691, “Synthesis and Biological Evaluation of Novel 8-Morpholinoimidazo[1,2-a]pyrazine Derivatives Bearing Phenylpyridine/Phenylpyrimidine-Carboxamides” (Molecules : A Journal of Synthetic Chemistry and Natural …, 2017).

One may read the melting point as the temperature, or range, at which the solid turns liquid. For orientation: IC50 means the concentration at which inhibition is half-maximal.

The test system of series [1] is A549 cell line (lung cancer). Put plainly: MTT cytotoxicity assay, A549. Type of series: cell-based. Conditions: Homo sapiens, 72 h, average of two separate determinations, NA: No Activity. The protocol: (§1) The target compounds 12a–g, 13a–g and 14a–g were evaluated for their in vitro cytotoxicity against three cancer cell lines (A549, PC-3 and MCF-7) by the standard MTT assay, with compound II and GDC-0941 as positive controls. […] The results expressed as inhibition rates or IC50 values are summarized in Table 1 and Table 2, where the values are the average of at least two independent experiments.
(§2) The in vitro cytotoxic activity of all the compounds 12a–g, 13a–g and 14a–g was evaluated with the A549, PC-3 and MCF-7 cell lines by the standard MTT assay, with compounds II and GDC-0941 as positive controls. The cancer cell lines were cultured in minimum essential medium (MEM) supplement with 10% fetal bovine serum (FBS). Approximately 4 × 10^3 cells, suspended in MEM medium, were plated onto each well of a 96-well plate and incubated in 5% CO2 at 37 °C for 24 h. The test compounds at indicated final concentrations were added to the culture medium and the cell cultures were continued for 72 h. Fresh MTT was added to each well at a terminal concentration of 5 μg/mL and incubated with cells at 37 °C for 4 h. The formazan crystals were dissolved in 100 μL of DMSO in each well, and the absorbance at 492 nm (for the MTT formazan) and 630 nm (for the reference wavelength) was measured with an ELISA reader. All of the compounds were tested three times in each of the cell lines. The results expressed as inhibition rates or IC50 (half-maximal inhibitory concentration) were the averages of two determinations and calculated by using the Bacus Laboratories Incorporated Slide Scanner (Bliss) software (the Bacus Laboratories Inc. Slide Scanner (BLISS) system, Lombard, IL, USA).
(In general: Formazan colour is commonly taken as a measure of viable cells.)

Series [2] deals with PC-3 cell line (prostate cancer). Put plainly: MTT cytotoxicity assay, PC-3. In kind it is cell-based. Conditions: Homo sapiens, 72 h, average of two separate determinations, NA: No Activity. The protocol: as §1, §2
Another series concerns PI3Kα. Conditions: cited from earlier work.
The test system of series [3] is MCF-7 cell line (breast cancer). Nature of the series: MTT cytotoxicity assay, MCF-7. Conditions: Homo sapiens, MCF7, 72 h, average of two separate determinations, NA: No Activity. In kind it is cell-based. The procedure:
as §1, §2

A further series addresses PI3Kα kinase (Homo sapiens, UniProt P42336). Nature of the series: Kinase-Glo Luminescent Kinase Assay, PI3Kα. Type of series: biochemical. For orientation: Kinase-Glo reads ATP consumption through a luciferase reaction.
Another series relates to mTOR. More on the design: method as in PMID 17339109. Conditions: read-out: IC50 against mTOR; cited from earlier work.

Read-outs that look alike come from different tables or passages of the source.

Sequence of PI3Kα kinase (P42336 whole entry): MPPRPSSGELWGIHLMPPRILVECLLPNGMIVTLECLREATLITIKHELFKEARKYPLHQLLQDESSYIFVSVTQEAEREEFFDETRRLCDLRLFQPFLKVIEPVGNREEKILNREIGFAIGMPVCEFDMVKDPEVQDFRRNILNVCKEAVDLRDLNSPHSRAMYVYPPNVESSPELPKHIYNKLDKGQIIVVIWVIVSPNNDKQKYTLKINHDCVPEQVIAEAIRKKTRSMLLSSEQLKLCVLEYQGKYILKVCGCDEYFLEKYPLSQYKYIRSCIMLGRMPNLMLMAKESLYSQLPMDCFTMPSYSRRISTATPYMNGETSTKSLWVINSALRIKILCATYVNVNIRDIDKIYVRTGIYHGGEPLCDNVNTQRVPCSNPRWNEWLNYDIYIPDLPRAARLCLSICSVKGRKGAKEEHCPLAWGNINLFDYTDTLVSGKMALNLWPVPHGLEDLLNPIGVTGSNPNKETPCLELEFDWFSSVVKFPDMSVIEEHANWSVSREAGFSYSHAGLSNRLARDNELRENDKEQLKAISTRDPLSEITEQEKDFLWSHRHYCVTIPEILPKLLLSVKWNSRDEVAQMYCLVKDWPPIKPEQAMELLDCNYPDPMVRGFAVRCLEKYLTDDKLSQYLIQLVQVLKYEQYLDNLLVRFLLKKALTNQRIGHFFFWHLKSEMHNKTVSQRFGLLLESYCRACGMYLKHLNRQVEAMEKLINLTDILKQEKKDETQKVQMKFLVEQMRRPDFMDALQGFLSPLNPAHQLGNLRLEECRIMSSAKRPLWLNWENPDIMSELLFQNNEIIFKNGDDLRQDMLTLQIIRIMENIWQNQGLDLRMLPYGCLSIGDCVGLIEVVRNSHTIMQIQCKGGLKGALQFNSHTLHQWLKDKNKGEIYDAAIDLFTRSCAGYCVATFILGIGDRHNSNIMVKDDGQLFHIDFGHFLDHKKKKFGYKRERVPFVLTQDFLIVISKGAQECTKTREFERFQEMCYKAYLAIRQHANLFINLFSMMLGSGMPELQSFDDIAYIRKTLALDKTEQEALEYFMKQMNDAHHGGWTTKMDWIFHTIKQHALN
Sequence of PI3Kα kinase (P27986 whole entry partner): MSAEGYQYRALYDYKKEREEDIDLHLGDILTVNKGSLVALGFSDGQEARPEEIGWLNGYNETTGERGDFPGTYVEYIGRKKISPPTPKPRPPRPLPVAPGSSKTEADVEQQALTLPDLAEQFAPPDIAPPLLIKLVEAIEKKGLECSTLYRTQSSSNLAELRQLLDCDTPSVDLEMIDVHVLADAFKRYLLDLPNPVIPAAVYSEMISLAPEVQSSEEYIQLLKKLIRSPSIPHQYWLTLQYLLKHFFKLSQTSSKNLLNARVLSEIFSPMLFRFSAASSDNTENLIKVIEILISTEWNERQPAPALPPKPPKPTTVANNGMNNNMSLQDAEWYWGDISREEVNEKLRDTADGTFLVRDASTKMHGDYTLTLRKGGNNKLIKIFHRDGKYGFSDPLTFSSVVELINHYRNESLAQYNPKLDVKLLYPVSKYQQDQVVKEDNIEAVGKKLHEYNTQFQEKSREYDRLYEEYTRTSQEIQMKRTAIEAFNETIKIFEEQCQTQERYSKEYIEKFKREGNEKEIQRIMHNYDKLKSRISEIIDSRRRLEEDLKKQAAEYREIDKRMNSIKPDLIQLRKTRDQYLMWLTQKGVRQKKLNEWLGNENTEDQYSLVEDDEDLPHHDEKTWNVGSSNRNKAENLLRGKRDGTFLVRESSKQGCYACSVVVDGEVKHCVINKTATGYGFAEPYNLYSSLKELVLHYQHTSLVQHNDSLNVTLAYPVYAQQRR

`O=C(Nc1ccc(-c2cn3ccnc3c(N3CCOCC3)n2)cc1)c1ccc(-c2ccc(F)cc2F)cn1` [12c, 5-(2,4-Difluorophenyl)-N-(4-(8-morpholinoimidazo[1,2-a]pyrazin-6-yl)phenyl)picolinamide] registered a melting point of 255 to 257 °C.
`O=C(Nc1ccc(-c2cn3ccnc3c(N3CCOCC3)n2)cc1)c1cc(-c2ccc(Br)cc2)ncn1` [14d, 6-(4-Bromophenyl)-N-(4-(8-morpholinoimidazo[1,2-a]pyrazin-6-yl)phenyl)pyrimidine-4-carboxamide] yielded a melting point of 221 to 223 °C. The compound further showed an IC50 in series [1] of 14.4 ± 1.01 µM. This compound also yielded an IC50 in series [2] of 37.1 ± 0.97 µM.
As for `COCCNC(=O)c1nc2c(N3CCOCC3)nc(-c3cnc(N)nc3)cn2c1C` [ETP46992], in the series with PI3Kα (read-out: IC50 PI3Kα), the IC50 was […].
`O=C(Nc1ccc(-c2cn3ccnc3c(N3CCOCC3)n2)cc1)c1ccc(-c2cccc(F)c2)cn1` [12b, 5-(3-Fluorophenyl)-N-(4-(8-morpholinoimidazo[1,2-a]pyrazin-6-yl)phenyl)picolinamide]: the melting point fell in the range of 261 to 264 °C.
`COc1ccc(-c2cc(C(=O)Nc3ccc(-c4cn5ccnc5c(N5CCOCC5)n4)cc3)ncn2)cc1` [14c, 6-(4-Methoxyphenyl)-N-(4-(8-morpholinoimidazo[1,2-a]pyrazin-6-yl)phenyl)pyrimidine-4-carboxamide] registered a melting point of 269 to 271 °C. Besides, half-maximal inhibition in series [1] (IC50) required 6.39 ± 1.04 µM. Further, in series [2], the half-inhibitory concentration (IC50) was 12.7 ± 0.95 µM. In series [3], this compound had a half-maximal inhibitory concentration (IC50) of 10.2 ± 1.62 µM. This compound also registered a 50% inhibitory concentration (IC50) at PI3Kα kinase (Kinase-Glo, average of two separate determinations) of 1.25 ± 0.13 µM. Further, the “fold more active than lead compound II against PI3Kα kinase” value on PI3Kα kinase (ratio of IC50 values, 7.39 μM vs 1.25 μM) is 6 fold.
For the compound `CS(=O)(=O)N1CCN(Cc2cc3nc(-c4cccc5[nH]ncc45)nc(N4CCOCC4)c3s2)CC1` [GDC-0941, 2-(1H-Indazol-4-yl)-6-(4-methanesulfonyl-piperazin-1-ylmethyl)-4-morpholin-4-yl-thieno[3,2-d]pyrimidine, reference compound], the IC50 came out at 6.99 ± 0.21 µM in series [1], 0.2 ± 0.08 µM in series [2] and 0.07 ± 0.03 µM in series [3].
Consider `O=C(Nc1ccc(-c2cn3ccnc3c(N3CCOCC3)n2)cc1)c1cc(-c2ccccc2)ccn1` [13a, N-(4-(8-Morpholinoimidazo[1,2-a]pyrazin-6-yl)phenyl)-4-phenylpicolinamide], for which the melting point was 261 to 262 °C.
In turn, `O=C(Nc1ccc(-c2cn3ccnc3c(N3CCOCC3)n2)cc1)c1cc(-c2ccccc2)ncn1` [14a, N-(4-(8-Morpholinoimidazo[1,2-a]pyrazin-6-yl)phenyl)-6-phenylpyrimidine-4-carboxamide] displayed a melting point of 272 to 275 °C. In series [1], this compound had a 50% inhibitory concentration (IC50) of 10.8 ± 1.62 µM.
`COc1ccc(-c2ccc(C(=O)Nc3ccc(-c4cn5ccnc5c(N5CCOCC5)n4)cc3)nc2)cc1` [12e, 5-(4-Methoxyphenyl)-N-(4-(8-morpholinoimidazo[1,2-a]pyrazin-6-yl)phenyl)picolinamide] returned a melting point of 255 to 257 °C.
For `Cc1cccc(-c2ccnc(C(=O)Nc3ccc(-c4cn5ccnc5c(N5CCOCC5)n4)cc3)c2)c1` [13f, N-(4-(8-Morpholinoimidazo[1,2-a]pyrazin-6-yl)phenyl)-4-(m-tolyl)picolinamide], the melting point fell in the range of 233 to 234 °C. The same compound yielded an IC50 in series [1] of 10.5 ± 0.82 µM. Moreover, the IC50 in series [2] was determined as 65.61 ± 0.52 µM. In addition, in series [3], the concentration for half-maximal inhibition (IC50) was found to be 74.2 ± 1.86 µM.
In the case of `O=C(Nc1ccc(-c2cn3ccnc3c(N3CCOCC3)n2)cc1)c1cc(-c2ccc(C(F)(F)F)cc2)ncn1` [14g, N-(4-(8-Morpholinoimidazo[1,2-a]pyrazin-6-yl)phenyl)-6-(4-(trifluoromethyl)phenyl)pyrimidine-4-carboxamide], the melting point fell in the range of 278 to 281 °C. For the same compound, the IC50 in series [2] was determined as 96.6 ± 2.58 µM.
Compound `O=C(Nc1ccc(-c2cn3ccnc3c(N3CCOCC3)n2)cc1)c1cc(-c2ccc(F)cc2F)ccn1` [13c, 4-(2,4-Difluorophenyl)-N-(4-(8-morpholinoimidazo[1,2-a]pyrazin-6-yl)phenyl)picolinamide] gave a melting point of 266 to 267 °C.
As to `O=C(Nc1ccc(-c2cn3ccnc3c(N3CCOCC3)n2)cc1)c1cc(-c2ccc(F)cc2)ncn1` [14f, 6-(4-Fluorophenyl)-N-(4-(8-morpholinoimidazo[1,2-a]pyrazin-6-yl)phenyl)pyrimidine-4-carboxamide], the melting point was 259 to 260 °C. The IC50 in series [1] came out at 58.2 ± 4.67 µM. Half-maximal inhibition in series [3] (IC50) was put at 47.1 µM.
Compound `Cc1ccc(-c2ccc(C(=O)Nc3ccc(-c4cn5ccnc5c(N5CCOCC5)n4)cc3)nc2)cc1` [12g, N-(4-(8-Morpholinoimidazo[1,2-a]pyrazin-6-yl)phenyl)-5-(p-tolyl)picolinamide] gave a melting point of 258 to 260 °C. Further, the IC50 in series [1] stood at 68.1 ± 0.89 µM. Moreover, inhibition in series [2] was half-maximal at 42.3 ± 0.86 µM (IC50).
The like results for `O=C(Nc1ccc(-c2cn3ccnc3c(N3CCOCC3)n2)cc1)c1ccc(-c2ccccc2)cn1` [12a] were, in that order, 268 to 270 °C, 58.7 ± 1.99 µM and 50.3 ± 2.04 µM.
The like results for `O=C(Nc1ccc(-c2cn3ccnc3c(N3CCOCC3)n2)cc1)c1ccc(-c2ccc(C(F)(F)F)cc2)cn1` [12d, N-(4-(8-Morpholinoimidazo[1,2-a]pyrazin-6-yl)phenyl)-5-(4-(trifluoromethyl)phenyl)picolinamide] were, in that order, 233 to 235 °C, 15.3 ± 0.88 µM and 69.7 ± 1.13 µM.
For `COc1ccc(-c2ccnc(C(=O)Nc3ccc(-c4cn5ccnc5c(N5CCOCC5)n4)cc3)c2)cc1` [13e, 4-(4-Methoxyphenyl)-N-(4-(8-morpholinoimidazo[1,2-a]pyrazin-6-yl)phenyl)picolinamide], the melting point is 257 to 260 °C. For the same compound, half-maximal inhibition in series [1] (IC50) was put at 23.9 ± 0.81 µM. In addition, the IC50 in series [2] turned out to be 59.7 ± 2.22 µM. For the same compound, the IC50 in series [3] was 74.9 ± 1.14 µM.
In turn, `O=C(Nc1ccc(-c2cn3ccnc3c(N3CCOCC3)n2)cc1)c1cc(-c2cccc(F)c2)ccn1` [13b, 4-(3-Fluorophenyl)-N-(4-(8-morpholinoimidazo[1,2-a]pyrazin-6-yl)phenyl)picolinamide] yielded a melting point of 237 to 239 °C.
With `O=C(Nc1ccc(-c2cn3ccnc3c(N3CCOCC3)n2)cc1)c1cc(-c2ccc(Cl)cc2)ncn1` [14e, 6-(4-Chlorophenyl)-N-(4-(8-morpholinoimidazo[1,2-a]pyrazin-6-yl)phenyl)pyrimidine-4-carboxamide], the melting point lay within 235 to 237 °C. Further, it took 17.4 ± 1.01 µM to reach half-maximal inhibition in series [1] (IC50).
For `Cc1cccc(-c2ccc(C(=O)Nc3ccc(-c4cn5ccnc5c(N5CCOCC5)n4)cc3)nc2)c1` [12f, N-(4-(8-Morpholinoimidazo[1,2-a]pyrazin-6-yl)phenyl)-5-(m-tolyl)picolinamide], the melting point is 241 to 243 °C. In series [1], the IC50 worked out at 19.1 ± 1.1 µM. Besides, half-maximal inhibition in series [2] (IC50) required 26.8 ± 1.47 µM.
Consider `Cc1ccc(-c2ccnc(C(=O)Nc3ccc(-c4cn5ccnc5c(N5CCOCC5)n4)cc3)c2)cc1` [13g, N-(4-(8-Morpholinoimidazo[1,2-a]pyrazin-6-yl)phenyl)-4-(p-tolyl)picolinamide], for which the melting point fell in the range of 271 to 273 °C. Further, in series [1], the concentration for half-maximal inhibition (IC50) came to 11.2 ± 1.08 µM. For the same compound, it took 7.89 ± 0.81 µM to reach half-maximal inhibition in series [3] (IC50).
For the compound `Oc1cccc(-c2nc(N3CCOCC3)c3oc4ncccc4c3n2)c1` [PI-103], the concentration for half-maximal inhibition (IC50) in the series with PI3Kα (read-out: IC50 against PI3Kα) was […]; in the series with mTOR, […].
Regarding `O=C(Nc1ccc(-c2cn3ccnc3c(N3CCOCC3)n2)cc1)c1cc(-c2ccc(C(F)(F)F)cc2)ccn1` [13d, N-(4-(8-Morpholinoimidazo[1,2-a]pyrazin-6-yl)phenyl)-4-(4-(trifluoromethyl)phenyl)picolinamide], the melting point was in the range of 269 to 272 °C. This compound also yielded an IC50 in series [1] of 42 ± 1.49 µM. For the same compound, in series [2], the IC50 turned out to be 55.6 ± 1.32 µM. This compound gave an IC50 in series [3] of 62.5 ± 1.99 µM.
Turning to `Cc1ccc(-c2cc(C(=O)Nc3ccc(-c4cn5ccnc5c(N5CCOCC5)n4)cc3)ncn2)cc1` [14b, N-(4-(8-Morpholinoimidazo[1,2-a]pyrazin-6-yl)phenyl)-6-(p-tolyl)pyrimidine-4-carboxamide], the melting point lay in the range of 222 to 225 °C. Also, the concentration for half-maximal inhibition (IC50) in series [1] came to 8.88 ± 0.97 µM. This compound also came in with an IC50 in series [2] of 25 ± 1.19 µM. Besides, the IC50 in series [3] was 6.69 ± 2.04 µM. For the same compound, the inhibition at 10 µM on PI3Kα kinase (at 10 μM, Kinase-Glo, average of two separate determinations, read-out: PI3Kα 10 μM Inhibitory %) was found to be 58 ± 4.4%.
